# According to patent US12083079B2, “Sphingoid compounds for prophylaxis and/or therapy of a viral infection” (priority 2018, dated 2024):
# Legend:
# [1] = system: lymphocytic choriomeningitis virus (LCMV); type: cell-based
# [2] = system: rhinovirus strain 2 (RV2); experiment: Intranasal RV2 infection of wild-type mice, Hela cell death bioassay of nasal bone; type: in vivo; conditions: 10 μL of 100 μM intranasal, 10 min prior to or 1, 4 or 8 hrs after infection, sacrificed after 24 hrs
# Experimental: Mice were infected with 10^3 PFU rhinovirus strain 2 (RV2) in 10 μL PBS. The virus was applied directly into the nose using a blunt ended, plastic coated 30 g needle, that was inserted into the nose approximately 2 mm. Sphingosine (SPH) was applied into the nose of the wild-type mice at a concentration of 100 μM solution in PBS in a volume of 10 μL. Sphingosine was applied either 10 min prior to rhinovirus infection (b.i.) or 1 hr, 4 hrs and 8 hrs after the infection (a.i.). Controls received the solvent, i.e. octylglucopyranoside (OGP) at the same concentration than used when sphingosine was applied, or were left untreated, but infected. Solutions were applied as in 3.2. Mice were sacrificed after 24 hrs, the nasal bone was removed and incubated for 4 days with Hela cells in a 24 well plate. If the nasal epithelial cells are infected, rhinovirus will be released due to the cytopathic effect of the virus and the in vivo infection can then be determined and quantified by measuring cell death of Hela cells as a bioassay. To this end, dead cells were collected, adherent cells were trypsinized, the fractions were combined, washed twice in H/S (20 mM HEPES, 132 mM NaCl, 5 mM KCl, 1 mM CaCl2), 0.7 mM MgCl2, 0.8 mM MgSO4, pH 7.4), stained with Trypan Blue (0.2% final concentration) and dead cells were counted in aliquots of 500 cells as above. […]
# RV1b = experiment: Binding of sphingosine to RV1b immobilized to agarose beads, remaining sphingosine by kinase assay; set-up: species or system rhinovirus; conditions: 250 μM sphingosine in PBS (pH 7.0), 4 hrs at 4° C.
# Experimental: As a complement to the above study, RV1b (obtained from ATCC) were immobilized to agarose beads and tested for binding of sphingosine (SPH). To this end, we incubated 1 μg/ml anti-RV1b antibodies with 10^6 CFU RV1b for 1 h at 4° C. in H/S, added 50 μL agarose protein A/G beads (Santa Cruz Inc.), incubated for an additional 1 h at 4° C. and washed the immobilized precipitates 5-times in H/S. We resuspended the beads in 500 μL PBS (pH 7.0) containing 250 μM sphingosine. Samples were incubated for 4 hrs at 4° C., pelleted and aliquots of the supernatants were added to 50 mM HEPES (pH 7.4), 250 mM NaCl, 30 mM MgCl2, 0.001 units sphingosine kinase (R&D), 1 mM ATP and 10 μCi [^32P]γATP. The kinase reaction was performed for 1 hr at 30° C., stopped by addition of 20 μl 1N HCl, 800 μl CHCl3/CH3OH/1N HCl (100:200:1, v/v/v), 240 μl CHCl3 and 2 M KCl. Phases were separated, the lower phase was collected, dried, dissolved in 20 μL of CHCl3:CH3OH (1:1, v/v) and separated on Silica G60 thin layer chromatography (TLC) plates using CHCl3/CH3OH/acetic acid/H2O (90:90:15:5, v/v/v/v). The TLC plates were exposed to radiography films, spots were removed from the plates, and the incorporation of [^32P] into sphingosine measured by liquid scintillation counting. Sphingosine was determined using a standard curve of C18-SPH. […]
# [3] = system: rhinovirus strain RV2 (minor strain); experiment: Rhinovirus RV2 infection of Hela cells, dead cells by Trypan Blue; type: cell-based; conditions: added 10 min before or 60 min or 240 min after infection, 4 days
# Hela cells = conditions: uninfected Hela cells, 10 μM or 20 μM
# [4] = Surface sphingosine in nasal mucosa after intranasal application, in situ sphingosine kinase assay; type: in vivo; conditions: wild-type mice
# Experimental: Sphingosine (SPH) was applied into the nose of wild-type mice and the concentration of sphingosine on the epithelial cell surface was determined after 1, 4 and 8 hrs (a.i.: after injection of sphingosine). To this end, 10 μl, of a 10 μM or a 100 μM sphingosine solution was applied into the nostrils of wild-type mice. Controls received the solvent, i.e. octylglucopyranoside at the same concentration used when sphingosine was applied, or were left untreated. Mice were slightly and very briefly anesthetized with ether. For the intranasal application we used a blunt-end 30 g needle that was covered with a thin plastic film. The blunt-ended needle was inserted into the nostrils approximately 2 mm. Mice were sacrificed after the indicated time, the nasal bone was removed, placed on a 30° C. pre-warmed plastic plate and an area of 2 mm×2 mm was immediately incubated with 0.001 units of sphingosine kinase 1 (#6068-SK-010, R&D) in 4 μl of 150 mM sodium acetate (pH 7.4), 1 μM ATP, and 10 μCi [^32P]γATP/sample. Controls were incubated with the same buffer without sphingosine kinase or were left untreated. […] The TLC plates were analyzed with a phosphoimager. Surface sphingosine levels were determined with a standard curve of C18-sphingosine. […]
# rhinovirus 2 (RV2) = experiment: RV2 infection of freshly isolated human epithelial cells, Hela cytotoxicity readout; type: cell-based; conditions: 10 μM or 20 μM, 24 hrs
# Experimental: (§1) 10^4 PFU of Rhinovirus 2 or 14 (RV2, RV14) were incubated with freshly isolated human epithelial cells for 24 hrs in the presence of 10 μM or 20 μM sphingosine (SPH) or the corresponding concentration of the solvent octylglucopyranoside (OGP), the cells were pelleted, supernatants completely removed, the cell pellets resuspended in PBS and added to Hela cells. Cells were incubated for 3 days and cytotoxicity as measurement for virus titers was determined. Shown is the mean±SD, n=4, *p<0.001 ANOVA.
# [5] = system: lymphocytic choriomeningitis virus (LCMV); type: cell-based; remark: listed apart in the source
# [6] = system: rhinovirus strain RV14 (major strain); experiment: Rhinovirus RV14 infection of Hela cells, dead cells by Trypan Blue; type: cell-based; conditions: added 10 min before or 60 min or 240 min after infection, 4 days
# rhinovirus 14 (RV14) = experiment: RV14 infection of freshly isolated human epithelial cells, Hela cytotoxicity readout; type: cell-based; conditions: 10 μM or 20 μM, 24 hrs
# Experimental: as §1
# [7] = system: epithelial cells of the nose; experiment: Dead nasal epithelial cells after intranasal sphingosine (Trypan Blue); type: in vivo; conditions: wild-type mice, 10 μL of 10 μM or 100 μM solution intranasal; 8 hours or 24 hours
# Experimental: Sphingosine was applied into the nose of wild-type mice as in 3.2. 10 μL of a 10 μM or a 100 μM sphingosine (SPH) solution was administered into the nostrils of wild-type mice. Controls received the solvent, i.e. octylglucopyranoside at the same concentration used when sphingosine was applied, or were left untreated. Mice were anesthetized prior to application of sphingosine. Mice were sacrificed after 8 hours or 24 hours, the nasal bone was removed and incubated in Trypsin solution for 10 min to release and isolate epithelial cells. Cells were washed twice in H/S (20 mM HEPES, 132 mM NaCl, 5 mM KCl, 1 mM CaCl2), 0.7 mM MgCl2, 0.8 mM MgSO4, pH 7.4), stained with Trypan Blue (0.2% final concentration) and dead cells were counted in aliquots of 500 cells. Given is the percentage of dead cells±SD from 4 independent experiments each; *p<0.05, ANOVA.
# HIV-1 JR-CSF = experiment: HIV-P24 ELISA in supernatant of infected human T cells; type: cell-based; conditions: 50 μM, after 7 days
# [8] = system: vesicular stomatitis virus (VSV); type: cell-based
compound,measurement,setting,value
"Oc1ccc(Nc2nc(-c3ccc(Cl)cc3)cs2)cc1 [SKII, 2-(p-hydroxyanilino)-4-(p-chlorophenyl)thiazole]",virus-infected cells by immunofluorescence,[1],inhibits the spreading of the virus
"CCCCCCCCCCCCC/C=C/[C@@H](O)[C@@H](N)CO [sphingosine, (2S,3R,4E)-2-amino-4-octadecene-1,3-diol]","infection with RV2 in vivo (percentage of dead Hela cells, bioassay)",[2],prevented
same,binding of sphingosine to RV1b-coupled agarose beads (remaining sphingosine in the supernatant),RV1b,efficiently bind sphingosine
same,infection with RV2 (percentage of dead cells),[3]; 10 μM,prevented the infection
same,infection with RV2 (percentage of dead cells),[3]; 20 μM,prevented the infection
same,effect of sphingosine itself on the cells (percentage of dead cells),Hela cells,had no effect on the cells
same,surface sphingosine concentration in nasal mucosa,"[4]; 10 μl of 10 μM or 100 μM solution into the nostrils, 1, 4 and 8 hrs",dose-dependent accumulation of sphingosine in the mucosa
same,surface sphingosine concentration after washing the mucosa in PBS,[4]; washing prior to the in situ kinase assay,reduces sphingosine accumulation
same,infection of human epithelial cells by RV2 (cytotoxicity as measurement for virus titers),rhinovirus 2 (RV2),abrogates infection
same,virus production (infectious LCMV particles in the supernatant),[5],inhibits the propagation of LCMV
same,infection with RV14 (percentage of dead cells),[6]; 10 μM,prevented the infection
same,infection with RV14 (percentage of dead cells),[6]; 20 μM,prevented the infection
same,infection of human epithelial cells by RV14 (cytotoxicity as measurement for virus titers),rhinovirus 14 (RV14),abrogates infection
same,toxic effects (percentage of dead nasal epithelial cells),[7],no toxic effects on epithelial cells of the nose
MP A08,amount of HIV-P24 in the supernatant,HIV-1 JR-CSF,prevents the propagation of HIV
sphingomyelinase,virus production (infectious LCMV particles in the supernatant),[5],inhibits the propagation of LCMV
same,number of plaques,[8],inhibits the propagation of VSV
